Earlier results, collected in patent US7314882B2, “Bicyclic heterocycles as cannabinoid receptor modulators” (Bristol-Myers Squibb Company, priority 2005, dated 2008).

Tested on: body weight
Conditions: 16 week trial period

Cc1c(C(=O)NN2CCCCC2)nn(-c2ccc(Cl)cc2Cl)c1-c1ccc(Cl)cc1 [SR-141716]
body weight in human subjects: dose-dependently reduced body weight
